Measurements from patent publication US20230002324A1, “NAPHTHOQUINONE DERIVATIVES FOR TREATMENT OF OXIDATIVE STRESS DISORDERS” (PTC THERAPEUTICS, INC., priority 2019, published 2023).
Read-outs that look alike come from different tables or passages of the source.

Key:
Type in all cases: cell-based
[1] = system: normal human fibroblasts (NHF, GM21811); test: NHF GM21811 RSL3 challenge cell survival (rescue) assay; settings: Fibroblast, 48 h, read-out: NHF GM21811 RSL3 Survival EC50
From the text: (§1) In neuronal cells excess extracellular glutamate inhibits the cystine/glutamate antiporter leading to intracellular cysteine depletion, GSH depletion, reactive oxygen species (ROS) production and cell death, a phenomenon termed oxidative glutamate toxicity, oxytosis, or ferroptosis. […] Q7 cells (ST HDH Q7/7; immortalized mouse striatal cells) challenged with cystine-free media or the selective, irreversible GPX4 inhibitor, methyl (1S,3R)-2-(2-chloroacetyl)-1-(4-(methoxycarbonyl)phenyl)-2,3,4,9-tetrahydro-1H-pyrido[3,4-b]indole-3-carboxylate (hereafter referred to as RSL3), recapitulate this phenotype, as do normal human fibroblasts (NHF) challenged with RSL3. An initial screen was performed to identify compounds effective in rescuing Q7 and/or NHF cells from death resulting from cystine deprivation or RSL3 challenge. This method is further described in Yonezawa et al., J. Neurochem 67, 566-573 (1996), Li et al., J Neurosci., 23, 5816-5826 (2003), Yang and Stockwell, Chem Biol., 15: 234-45 (2008), and Yang et al., Cell 156, 317-331 (2014). See also Hinman A, Holst C R, Latham J C, et al. Vitamin E hydroquinone is an endogenous regulator of ferroptosis via redox control of 15-lipoxygenase. PLoS One. 2018; 13(8):e0201369. Published 2018 Aug. 15. doi:10.1371/journal.pone.0201369; and Kahn-Kirby A H, Amagata A, Maeder C I, et al. Targeting ferroptosis: A novel therapeutic strategy for the treatment of mitochondrial disease-related epilepsy. PLoS One. 2019; 14(3):e0214250. Published 2019 Mar. 28. doi:10.1371/journal.pone.0214250.
(§2) DMEM (Catalog no. 11995-040), DMEM without Cystine (Catalog no. 21013-024), DMEM without Glucose (Catalog A1443001), PBS (Phosphate buffered saline), Penicillin-streptomycin mix, L-Glutamine, Glucose, Phenol Red, and Pyruvate were purchased from ThermoFisher Scientific (Gibco). Fetal Bovine Serum was obtained from Mediatech, Inc., or Sigma Aldrich. Mouse striatum derived ST HDH Q7/7 (Q7) and normal human skin fibroblast (NHF, product number GM21811) cells were obtained from the Coriell Institute. Methionine and Vitamin K2 were purchased from Sigma Aldrich. RSL3 was synthesized as previously described (see e.g. US Patent Publication US2010/0081654). Cell Titer Glo 2.0 was purchased from Promega. Q7 cell culture medium (Q7 growth medium) was made by combining 50 mL Fetal Bovine Serum, 100 U/mL penicillin, and 100 microgram/mL streptomycin; DMEM was added to make the volume up to 500 mL. Assay medium for the Cystine Deprivation assay was prepared by combining 50 mL Fetal Bovine Serum, 100 U/mL penicillin, 100 microgram/mL streptomycin, 4 mM L-Glutamine, 1 mM Pyruvate and 30 mg/L Methionine; DMEM without Cystine was added to make the volume up to 500 mL. NHF cell culture medium (NHF growth medium) was made by combining 50 mL Fetal Bovine Serum, 100 U/mL penicillin, 100 microgram/mL streptomycin, 2.8 mL 20% Glucose solution (final concentration 6 mM), L-glutamine (final concentration 2 mM), phenol red (final concentration 15 mg/L); DMEM without Glucose was added to make the volume up to 500 mL. Assay medium for the RSL3 challenge assay was identical to Growth medium. While not in use during the course of the experiments, these solutions were stored at 4° C. The cells were grown in 150-cm^2 tissue culture-treated flasks. Every third or fourth day, the cells were sub-cultured by trypsinization and re-seeded at a cell density of 600,000 (Q7) or 300,000 (NHF) cells per flask.
(§3) Q7 or NHF cells were cultured routinely as described herein. For 384-well cell survival assays, cells were seeded in clear bottom, black wall 384-well tissue culture-treated polystyrene plates by re-suspending a cell suspension at a density of 50,000 cells/mL in growth medium, then dispensing 60 microliters of cell suspension per well using either an electronic multichannel pipette or a Multidrop™ Combi Reagent Dispenser (ThermoFisher Scientific), corresponding to 3,000 cells/well. […]

[2] = system: Q7 cells (ST HDH Q7/7; immortalized mouse striatal cells); test: Q7 Cystine Deprivation cell survival (rescue) assay; settings: 18 h, read-out: Q7 Cystine Deprivation Survival EC50
In short: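 Cells were seeded at 3,000/well and allowed to attach for 5 h at 33 °C. Wells were then washed twice with PBS and switched to cystine-free DMEM containing FBS, 4 mM L-glutamine, 1 mM pyruvate and 30 mg/L methionine to induce ferroptotic death. Compounds were scored for survival rescue.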

[3] = system: Q7 cells (ST HDH Q7/7; immortalized mouse striatal cells); test: Q7 RSL3 challenge cell survival (rescue) assay; settings: 18 h, read-out: Q7 RSL3 Survival EC50
From the text: as §1, §2, §3

[4] = NHF cells, RSL3 2 micromolar, Cell Titer Glo
[5] = Q7 cells, cystine-free medium, Cell Titer Glo, 50% relative viability vs Vitamin K2 (1 micromolar)
[6] = Q7 cells, RSL3 2 micromolar, Cell Titer Glo

SMILES | EC50 [1, 4] [nM] | EC50 [2, 5] [nM] | EC50 [3, 6] [nM] | EC50 [1] [nM] | EC50 [3] [nM] | EC50 [2] [nM]
CC1=C(Cc2ccc(F)cn2)C(=O)c2ccccc2C1=O [Example 6, 2-((5-fluoropyridin-2-yl)methyl)-3-methylnaphthalene-1,4-dione] | < 50 | < 50 | < 50 |  |  | 
CC1=C(Cc2ccc(C(F)F)cn2)C(=O)c2ccccc2C1=O [Example 20, 2-((5-(difluoromethyl)pyridin-2-yl)methyl)-3-methylnaphthalene-1,4-dione] | < 50 | < 50 | < 50 |  |  | 
[2H]C([2H])(C1=C(C)C(=O)c2ccccc2C1=O)c1ccc(C(F)(F)F)cn1 [Example 21, 2-methyl-3-((5-(trifluoromethyl)pyridin-2-yl)methyl-d2)naphthalene-1,4-dione] | < 50 |  | < 50 |  |  | 
CC1(CCC2=C(Cc3ccc(C(F)(F)F)cn3)C(=O)c3ccccc3C2=O)COC1 [Example 32, 2-(2-(3-methyloxetan-3-yl)ethyl)-3-((5-(trifluoromethyl)pyridin-2-yl)methyl)naphthalene-1,4-dione] | 50 to 250 | < 50 | < 50 |  |  | 
O=C1C(CCC2COC2)=C(Cc2ccc(C(F)(F)F)cn2)C(=O)c2ccccc21 [Example 33, 2-(2-(oxetan-3-yl)ethyl)-3-((5-(trifluoromethyl)pyridin-2-yl)methyl)naphthalene-1,4-dione] | 50 to 250 | < 50 | < 50 |  |  | 
O=C1C(Cc2ccc(F)cn2)=C(C2CC2)C(=O)c2ccccc21 [Example 35, 2-cyclopropyl-3-((5-fluoropyridin-2-yl)methyl)naphthalene-1,4-dione] | < 50 | < 50 | < 50 |  |  | 
CC1=C(Cc2ccc(F)cn2)C(=O)c2ccc(F)cc2C1=O [Example 48, 6-fluoro-2-((5-fluoropyridin-2-yl)methyl)-3-methylnaphthalene-1,4-dione] | < 50 | < 50 | < 50 |  |  | 
CC1=C(Cc2ccc(C(F)(F)F)cn2)C(=O)c2cc(C(F)(F)F)ccc2C1=O [Example 53, 2-methyl-6-(trifluoromethyl)-3-((5-(trifluoromethyl)pyridin-2-yl)methyl)naphthalene-1,4-dione] |  | 50 to 250 | 50 to 250 |  |  | 
[2H]C([2H])([2H])C1=C(Cc2ccc(C(F)(F)F)cn2)C(=O)c2ccccc2C1=O [Example 54, 2-(methyl-d3)-3-((5-(trifluoromethyl)pyridin-2-yl)methyl)naphthalene-1,4-dione] |  | < 50 | < 50 |  |  | 
CCC1=C(Cc2ccc(C(F)(F)F)cn2)C(=O)c2cc(F)cc(F)c2C1=O [Example 56, 3-ethyl-5,7-difluoro-2-((5-(trifluoromethyl)pyridin-2-yl)methyl)naphthalene-1,4-dione] |  |  |  | < 50 | < 50 | 
CC1=C(Cc2ccc(C(F)(F)F)cn2)C(=O)c2cccc(Cl)c2C1=O [Example 60, 5-chloro-3-methyl-2-[[5-(trifluoromethyl)-2-pyridyl]methyl]naphthalene-1,4-dione] | < 50 |  | < 50 |  |  | 
[2H]C([2H])([2H])C1=C(Cc2ccc(C(F)(F)F)c(C#N)n2)C(=O)c2cc(F)cc(F)c2C1=O [Example 71, 6-((5,7-difluoro-3-(methyl-d3)-1,4-dioxo-1,4-dihydronaphthalen-2-yl)methyl)-3-(trifluoromethyl)picolinonitrile] | < 50 |  | < 50 |  |  | 
[2H]C([2H])([2H])C1=C(Cc2ccc(C(F)(F)F)c(C#N)n2)C(=O)c2c(F)cc(F)cc2C1=O [Example 72, 6-((6,8-difluoro-3-(methyl-d3)-1,4-dioxo-1,4-dihydronaphthalen-2-yl)methyl)-3-(trifluoromethyl)picolinonitrile] | < 50 |  | < 50 |  |  | 
[2H]C([2H])([2H])C1=C(Cc2ccc(C(F)(F)F)c(C#N)n2)C(=O)c2ccc(F)cc2C1=O [Example 73, 6-((6-fluoro-3-(methyl-d3)-1,4-dioxo-1,4-dihydronaphthalen-2-yl)methyl)-3-(trifluoromethyl)picolinonitrile] | < 50 |  | < 50 |  |  | 
CC1=C(Cc2ccc(C(F)(F)F)c(C#N)n2)C(=O)c2cc(F)cc(F)c2C1=O [Example 74, 6-((5,7-difluoro-3-methyl-1,4-dioxo-1,4-dihydronaphthalen-2-yl)methyl)-3-(trifluoromethyl)picolinonitrile] | < 50 |  | 50 to 250 |  |  | 
CC1=C(Cc2ccc(C(F)(F)F)c(C#N)n2)C(=O)c2c(F)cc(F)cc2C1=O [Example 75, 6-((6,8-difluoro-3-methyl-1,4-dioxo-1,4-dihydronaphthalen-2-yl)methyl)-3-(trifluoromethyl)picolinonitrile] | < 50 |  | < 50 |  |  | 
[2H]C([2H])([2H])C1=C(Cc2ccc(C(F)(F)F)c(C#N)n2)C(=O)c2c(F)ccc(F)c2C1=O [Example 76, 6-((5,8-difluoro-3-(methyl-d3)-1,4-dioxo-1,4-dihydronaphthalen-2-yl)methyl)-3-(trifluoromethyl)picolinonitrile] | < 50 |  | < 50 |  |  | 
CC1=C(Cc2ccc(C(F)(F)F)c(C#N)n2)C(=O)c2ccccc2C1=O [Example 77, 6-((3-methyl-1,4-dioxo-1,4-dihydronaphthalen-2-yl)methyl)-3-(trifluoromethyl)picolinonitrile] | < 50 |  | < 50 |  |  | 
CCCC1=C(Cc2ccc(C(F)(F)F)c(C#N)n2)C(=O)c2cc(F)cc(F)c2C1=O [Example 82, 6-((5,7-difluoro-1,4-dioxo-3-propyl-1,4-dihydronaphthalen-2-yl)methyl)-3-(trifluoromethyl)picolinonitrile] | < 50 |  | < 50 |  |  | 
O=C1C(Cc2ccc(F)cn2)=C(C2CC2)C(=O)c2c(F)ccc(F)c21 [Example 87, 2-cyclopropyl-5,8-difluoro-3-((5-fluoropyridin-2-yl)methyl)naphthalene-1,4-dione] | < 50 |  | < 50 |  |  | 
CCC1=C(Cc2ccc(F)cn2)C(=O)c2c(F)ccc(F)c2C1=O [Example 88, 2-ethyl-5,8-difluoro-3-((5-fluoropyridin-2-yl)methyl)naphthalene-1,4-dione] | < 50 |  | < 50 |  |  | 
CCCC1=C(Cc2ccc(C(F)(F)F)c(C#N)n2)C(=O)c2ccccc2C1=O [Example 114, 6-((1,4-dioxo-3-propyl-1,4-dihydronaphthalen-2-yl)methyl)-3-(trifluoromethyl)picolinonitrile] |  | < 50 | < 50 |  |  | 
Cc1c(Cc2ccc(C(F)(F)F)cn2)c(O)c2ccccc2c1O [Example 131, 2-methyl-3-((5-(trifluoromethyl)pyridin-2-yl)methyl)naphthalene-1,4-diol] |  |  |  |  | < 50 | < 50
